From US5476933A, “Azepine synthesis via a diels-alder reaction” (priority 1994, dated 1995)

How the values were obtained:
[1] = target: T1, glycine binding site of the NMDA receptor (Rattus norvegicus, UniProt P35439); test: 1 μM glycine-stimulated [3H]-MK-801 binding, rat brain membrane homogenates; details: rat brain homogenates, [3H]-MK-801 binding, 1 μM glycine; read-out: IC50
T1 construct: rat brain membrane homogenates which are enriched in NMDA receptors; tissue Pel-Freez, Rogers, Ark; host or cells: whole rat brain, washed membrane homogenate
Experimental: ^a Experiments described herein utilizing rat brain homogenates and a
The assay is conducted using rat brain membrane homogenates which are enriched in NMDA receptors. The membranes are prepared as follows. Frozen rat brains (obtained from Pel-Freez, Rogers, Ark.) are homogenized in 15 volumes (w/v) of ice cold 0.32M sucrose. The homogenate is spun at 1,000×g for ten minutes. The supernatant is collected and spun for 20 minutes at 44,000×g. The pellet is suspended in 15 volumes of water (relative to original brain weight). The homogenate is again spun at 44,000×g for twenty minutes. The pellet is resuspended in 5 volumes of water and the suspension is freeze-thawed 2 times. After the final thaw cycle, the suspension is brought to 15 volumes with water and spun at 44,000×g for twenty minutes. The pellet is resuspended in 5 volumes of ice-cold 10 mM HEPES, and is titrated to pH 7.4 with KOH containing 0.04% Triton X-100. Membranes are incubated with the Triton/HEPES buffer at 37° C. for 15 minutes. The volume is then brought to 15 with ice-cold 10 mM HEPES, pH 7.4, and spun/washed three times with spins of 44,000×g between washes. The final pellet is suspended in three volumes of 50 mM HEPES, pH 7.4 and the protein concentration is determined with a standard dye-binding protein assay (Bio-Rad, Richmond, Calif.). The suspension is stored at -80° C. until used. Only HPLC grade water is used for all buffers and suspensions/washings. The extensive washings are necessary to remove as much endogenous glycine from the membrane preparation as possible.
Nonspecific binding is defined as the […] presence of PCP (final concentration: 100 μM). […] A 500 nM concentration (final) of 5,7-dichlorokynurenic (DCK) acid is added to all assay tubes. This concentration of the glycine antagonist DCK "buffers" most of the residual endogenous glycine that is not removed by the extensive washing steps that are carried out during the membrane preparation procedure.
The assays are incubated for 120 minutes at room temperature after which time the membrane-bound radioactivity is isolated from the free radioactivity by vacuum filtration through Whatman glass fiber filters that had been pretreated with 0.3% polyethyleneimine. Filtration is accomplished using a Brandel 48 well cell harvester. Filtered membranes are washed three times with 3 mL each of ice cold buffer. Filters are transferred to scintillation vials and 5 mL of scintillation cocktail is added. The vials are shaken overnight and the radioactivity is counted by liquid scintillation spectroscopy. The assays are done in triplicate and all experiments are conducted at least three times.
Inhibition dose response curves are constructed using increasing concentrations of glycine antagonists from 5 nM to 330 μM.
After constructing inhibition dose response curves and determination of glycine reversibility, Ki values for the glycine antagonists are calculated using the Cheng and Prusoff equation employing the experimentally determined IC50 values, the known concentration of glycine in the assay (1 μM) and the known affinity of glycine for the glycine binding site of the NMDA receptor (100 nM).
Binding Assays and In Vivo Studies.

[2] = crossing of the blood/brain barrier; details: inferred from Ki and MES ED50
[3] = test system: male Swiss/Webster mice; test: maximum electroshock-induced seizure (MES) assay; type: in vivo, mouse; details: Mus musculus, iv; anticonvulsant, MES in mice
Experimental: The anticonvulsant activity of the glycine antagonists may be assessed in the maximum electroshock-induced seizure (MES) assay in mice. […] The seizure stimulus parameters are 50 mA, 60 Hz, rectangular pulse, width 0.8 msec, duration 200 msec. Tonic hind limb extension observed after application of the electrical stimulus is recorded as occurrence of seizure.

[4] = target: T2, glycine/NMDA receptor (Rattus norvegicus, UniProt P35439); test: electrophysiology using Xenopus oocytes; type: cell-based; details: from electrophysiology using Xenopus oocytes unless otherwise noted; read-out: Ki
T2 construct: expressed in transfected cells; host or cells: Xenopus oocytes (RNA injected)

[5] = target: PCP receptor; details: Wong et al. 1986; cited from earlier work
[6] = test system: rodents; details: literature; cited from earlier work
[7] = test system: neurons in brain ischemia; details: literature; cited from earlier work
[8] = test system: pigeons; details: literature; cited from earlier work

In the case of O=c1cc(O)c(=O)[nH]c2c1CCCC2 [Compound 61, 3-Hydroxy-6,7,8,9-tetrahydro-1H-1-benzazepine-2,5-dione], the IC50 [1] is reported as 34 µM, the “crossing the blood-brain-barrier, relative to 6,7-dichloro-5-nitro-1,4-dihydroquinoxaline-2,3-dione” value [2] is reported as “about 100 times” and the ED50 [3] is reported as 8 mg/kg. The Ki [4] was 1.65 µM.
In the case of C[C@]12N[C@H](Cc3ccccc31)c1ccccc12 [MK-801], the Kd [5] is listed as ~0.003 µM and the “PCP-like behavioral effects, in words” value [6] is listed as “adverse PCP-like behavioral side effects”.
In the case of c1ccc(C2(N3CCCCC3)CCCCC2)cc1 [PCP, phencyclidine], the “neuroprotective efficacy, in words” value [7] is given as “neuroprotective efficacy both in vitro and in vivo”, the “PCP-like behavioral effects, in words” value [6] is given as “behavioral excitation (hyperlocomotion)” and the “katalepsy, in words” value [8] is given as “characteristic katalepsy in pigeons”.
